Data on 14 compounds can be found in ChEMBL document CHEMBL1909046, “DrugMatrix in vitro pharmacology data”.

Test [1] can be described thus: DRUGMATRIX: Leukotriene, BLT (LTB4) radioligand binding (ligand: [3H]LTB4). Format: cell membranes, Membrane. The following applies: u-937, Not Active = under 50% inhibition at 10 µM.
The target in test [2] is T1, 5-hydroxytryptamine receptor 2C (Homo sapiens, UniProt P28335).
T1 sequence (P28335 whole entry): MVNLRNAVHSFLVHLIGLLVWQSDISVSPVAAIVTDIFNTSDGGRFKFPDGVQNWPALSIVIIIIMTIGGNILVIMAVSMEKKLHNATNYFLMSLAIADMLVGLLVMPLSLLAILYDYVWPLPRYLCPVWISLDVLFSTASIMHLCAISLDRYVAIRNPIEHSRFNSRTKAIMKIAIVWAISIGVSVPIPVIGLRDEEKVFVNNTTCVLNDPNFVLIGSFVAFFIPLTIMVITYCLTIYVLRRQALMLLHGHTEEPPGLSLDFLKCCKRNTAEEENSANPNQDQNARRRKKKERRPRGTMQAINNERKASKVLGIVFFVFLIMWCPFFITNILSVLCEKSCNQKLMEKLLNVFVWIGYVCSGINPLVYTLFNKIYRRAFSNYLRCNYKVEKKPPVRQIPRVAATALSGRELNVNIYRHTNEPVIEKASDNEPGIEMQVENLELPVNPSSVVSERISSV
As to the kind of experiment: DRUGMATRIX: Serotonin (5-Hydroxytryptamine) 5-HT2C radioligand binding (ligand: [3H] Mesulergine). Format: cell membranes, CHO-K1, Membrane. The conditions noted are these: Not Active = under 50% inhibition at 10 µM.

The next test has as its target Substance-P receptor (Homo sapiens, UniProt P25103). Format: cell membranes, Membrane. The following applies: cho. Further: in other assays of this panel Not Active means under 50% inhibition at 10 µM.
A short description of test [3]: DRUGMATRIX: Calcium Channel Type L, Phenylalkylamine radioligand binding (ligand: [3H] (-)-Desmethoxyverapamil (D-888)). The following applies: Not Active = under 50% inhibition at 10 µM. The test is classed as cell membranes, Rattus norvegicus, Wistar, Brain, Membrane.
Test [4] concerns the target Aldo-keto reductase family 1 member B1 (Rattus norvegicus, UniProt P07943). As to the kind of experiment: biochemical. The test is classed as tissue-based, Lens of camera-type eye.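 Further: inhibition of aldose reductase enzyme activity, measured with DL-glyceraldehyde as the substrate; in other assays of this panel Not Active means under 50% inhibition at 10 µM.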

Substance-P receptor, sequence (P25103 whole entry): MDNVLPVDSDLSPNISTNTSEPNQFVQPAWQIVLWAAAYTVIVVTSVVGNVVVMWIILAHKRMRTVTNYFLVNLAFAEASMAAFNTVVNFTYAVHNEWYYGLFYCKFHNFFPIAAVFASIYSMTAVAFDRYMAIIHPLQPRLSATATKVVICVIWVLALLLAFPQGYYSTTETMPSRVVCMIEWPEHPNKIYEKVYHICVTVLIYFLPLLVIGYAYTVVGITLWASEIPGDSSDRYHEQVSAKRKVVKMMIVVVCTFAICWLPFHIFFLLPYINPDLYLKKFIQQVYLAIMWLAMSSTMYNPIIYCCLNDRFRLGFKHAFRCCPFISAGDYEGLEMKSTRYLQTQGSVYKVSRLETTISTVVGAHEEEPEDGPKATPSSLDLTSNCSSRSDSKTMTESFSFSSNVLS

`Cc1cc(C(C)(C)C)c(O)c(C)c1CC1=NCCN1` [OXYMETAZOLINE]: the half-maximal inhibitory concentration (IC50) entry was “Not Active” in test [1]; 0.578 µM in test [2] (read-out: IC50); “Not Active” against Substance-P receptor; 2.25 µM in test [3] (read-out: IC50); “Not Active” in test [4]. Besides, the Ki result in test [1] was “Not Active”; in test [2] (read-out: Ki), 0.303 µM; in test [3] (read-out: Ki), 2.18 µM.
Regarding `C[N+](C)(C)CCOC(N)=O.[Cl-]` [CARBACHOL], the IC50 result (in test [1]; in test [2] (cho-k1); on Substance-P receptor; in test [3]; in test [4]) was “Not Active” in each case. For the same compound, the Ki result in test [1] and in test [3] was “Not Active” each time.
`CCN(CCO)CCCC(C)Nc1ccnc2cc(Cl)ccc12` (configuration not stated) [HYDROXYCHLOROQUINE]: the IC50 result (in test [1]; in test [2] (cho-k1); on Substance-P receptor; in test [3]; in test [4]) was “Not Active” throughout. In addition, the Ki result in test [1] and in test [3] was “Not Active” throughout.
With `O=C1c2ccccc2C(=O)C1c1ccccc1` [PHENINDIONE], the IC50 result (in test [1]; in test [2] (cho-k1); against Substance-P receptor; in test [3]; in test [4]) was “Not Active” each time. In addition, the Ki entry in test [1] and in test [3] was “Not Active” throughout.
For `NC(N)=Nc1nc(CSCCC(N)=NS(N)(=O)=O)cs1` [FAMOTIDINE], the IC50 result (in test [1]; in test [2] (cho-k1); against Substance-P receptor; in test [3]; in test [4]) was “Not Active” in each case. Besides, the Ki result in test [1] and in test [3] was “Not Active” throughout.
With `Cc1ccnc2c1NC(=O)c1cccnc1N2C1CC1` [NEVIRAPINE], the IC50 entry (in test [1]; in test [2] (cho-k1); on Substance-P receptor; in test [3]; in test [4]) was “Not Active” in each case. Moreover, the Ki entry in test [1] and in test [3] was “Not Active” in each case.
For `CO[C@H]1O[C@@H]2O[C@@]3(C)CC[C@H]4[C@H](C)CC[C@@H]([C@H]1C)[C@@]24OO3`, the IC50 entry (in test [1]; in test [2] (cho-k1); against Substance-P receptor; in test [3]; in test [4]) was “Not Active” in each case. Further, the inhibitory constant (Ki) result in test [1] and in test [3] was “Not Active” each time.
For the compound `CN(CCOc1ccc(C[C@H](Nc2ccccc2C(=O)c2ccccc2)C(=O)O)cc1)c1ccccn1`, the IC50 result (in test [1]; in test [2] (cho-k1); at Substance-P receptor; in test [3]; in test [4]) was “Not Active” in each case. The Ki entry in test [1] and in test [3] was “Not Active” in each case.
For the compound `c1ccc2sc(SSc3nc4ccccc4s3)nc2c1` [BENZOTHIAZYL DISULFIDE], the IC50 in test [1] (read-out: IC50) was 5.1 µM; in test [2] (cho-k1), “Not Active”; at Substance-P receptor, “Not Active”; in test [3] it was “Not Active”; in test [4], “Not Active”. Also, the Ki in test [1] (read-out: Ki) was 1.3 µM; in test [3], “Not Active”.
Regarding `NS(=O)(=O)c1cc(C(=O)O)c(NCc2ccco2)cc1Cl` [FUROSEMIDE], the IC50 result (in test [1]; in test [2] (cho-k1); at Substance-P receptor; in test [3]; in test [4]) was “Not Active” in each case. For the same compound, the Ki entry in test [1] and in test [3] was “Not Active” throughout.
Take `COc1ccc(C[C@H](N)C(=O)N[C@H]2[C@@H](O)[C@H](n3cnc4c(N(C)C)ncnc43)O[C@@H]2CO)cc1` [PUROMYCIN]: the 50% inhibitory concentration (IC50) result (in test [1]; in test [2] (cho-k1); at Substance-P receptor; in test [3]; in test [4]) was “Not Active” throughout. Moreover, the Ki entry in test [1] and in test [3] was “Not Active” in each case.
Regarding `O=c1[nH]c2ccccc2c2ccccc12`, the IC50 result (in test [1]; in test [2] (cho-k1); against Substance-P receptor; in test [3]; in test [4]) was “Not Active” each time. The Ki entry in test [1] and in test [3] was “Not Active” each time.
In the case of COPPER(II) OXIDE, the IC50 result (in test [1]; in test [2] (cho-k1); on Substance-P receptor; in test [3]; in test [4]) was “Not Active” each time. Also, the Ki result (in test [1]; in test [2] (cho-k1); at Substance-P receptor; in test [3]; in test [4]) was “Not Active” each time.
Take `CC12CCC(CC1)C(C)(C)O2` [EUCALYPTOL]: the concentration for half-maximal inhibition (IC50) result (in test [1]; in test [2] (cho-k1); at Substance-P receptor; in test [3]; in test [4]) was “Not Active” each time. Moreover, the Ki entry in test [1] and in test [3] was “Not Active” in each case.

A word on the IC50: it is the concentration that inhibits the measured activity by half. A word on the Ki: it is the dissociation constant of the complex between target and ligand, obtained from inhibition or displacement.
